Test system: human HEp2 cells
Conditions: read-out: Dark toxicity (IC50), overnight incubation, Cell Titer Blue, from dose-response curves

Structure (SMILES): COc1ccc(C2=C3C=C(Cl)C(c4ccc(OC)cc4)=[N+]3[B-](F)(F)n3c2cc(Cl)c3-c2ccc(NC(=S)NCCOCCOCCOCCC(=O)N[C@@H](CC(C)C)C(=O)N[C@@H](C)C(=O)N[C@@H](CCCNC(=N)N)C(=O)N[C@@H](CC(C)C)C(=O)N[C@@H](CC(C)C)C(=O)N[C@H](C(N)=O)[C@@H](C)O)cc2)cc1 [Conjugate 8, BODIPY-3PEG-LARLLT-NH2]
- IC50: 98 µM
